{"source": "the NIST ThermoML archive (doi:10.1016/j.jct.2006.01.012)", "experiment": "xn = mol fraction of the nth substance listed", "conditions": "Liquid; for mass density: isochoric method; for viscosity: Capillary tube (Ostwald / Ubbelohde) method", "note": "Numbers after ± are expanded uncertainties.", "data": [{"smiles": "CCCCCCCC", "note": "[octane] + CCCCCCC", "values": [{"measurement": "mass density", "setting": "293.15 K, 100 kPa, x2 = 0.2808", "value": "697.8 ± 0.9", "unit": "kg/m3"}, {"measurement": "mass density", "setting": "293.15 K, 100 kPa, x2 = 0.5427", "value": "693.2 ± 0.8", "unit": "kg/m3"}, {"measurement": "mass density", "setting": "293.15 K, 100 kPa, x2 = 0.7906", "value": "688.3 ± 0.8", "unit": "kg/m3"}, {"measurement": "viscosity", "setting": "298.15 K, 100 kPa, x2 = 0.5427", "value": "0.436 ± 0.014", "unit": "mPa·s"}, {"measurement": "mass density", "setting": "298.15 K, 100 kPa, x2 = 0.2808", "value": "694 ± 0.8", "unit": "kg/m3"}, {"measurement": "mass density", "setting": "298.15 K, 100 kPa, x2 = 0.5427", "value": "689.2 ± 0.8", "unit": "kg/m3"}, {"measurement": "mass density", "setting": "298.15 K, 100 kPa, x2 = 0.7906", "value": "684.2 ± 0.8", "unit": "kg/m3"}, {"measurement": "viscosity", "setting": "298.15 K, 5000 kPa, x2 = 0.5427", "value": "0.461 ± 0.015", "unit": "mPa·s"}, {"measurement": "viscosity", "setting": "298.15 K, 10000 kPa, x2 = 0.5427", "value": "0.487 ± 0.016", "unit": "mPa·s"}, {"measurement": "viscosity", "setting": "298.22 K, 100 kPa, x2 = 0.7906", "value": "0.408 ± 0.013", "unit": "mPa·s"}, {"measurement": "viscosity", "setting": "298.22 K, 5000 kPa, x2 = 0.7906", "value": "0.435 ± 0.014", "unit": "mPa·s"}, {"measurement": "viscosity", "setting": "298.22 K, 10000 kPa, x2 = 0.7906", "value": "0.459 ± 0.015", "unit": "mPa·s"}, {"measurement": "viscosity", "setting": "298.39 K, 100 kPa, x2 = 0.2808", "value": "0.467 ± 0.015", "unit": "mPa·s"}, {"measurement": "viscosity", "setting": "298.39 K, 5000 kPa, x2 = 0.2808", "value": "0.493 ± 0.016", "unit": "mPa·s"}, {"measurement": "viscosity", "setting": "298.39 K, 10000 kPa, x2 = 0.2808", "value": "0.521 ± 0.017", "unit": "mPa·s"}, {"measurement": "mass density", "setting": "299.24 K, 3824 kPa, x2 = 0.5427", "value": "691.8 ± 0.8", "unit": "kg/m3"}, {"measurement": "mass density", "setting": "299.24 K, 6865 kPa, x2 = 0.5427", "value": "694.6 ± 0.8", "unit": "kg/m3"}, {"measurement": "mass density", "setting": "299.24 K, 9316 kPa, x2 = 0.5427", "value": "696.4 ± 0.9", "unit": "kg/m3"}, {"measurement": "mass density", "setting": "303.15 K, 100 kPa, x2 = 0.2808", "value": "689.9 ± 0.8", "unit": "kg/m3"}, {"measurement": "mass density", "setting": "303.15 K, 100 kPa, x2 = 0.5427", "value": "685 ± 0.8", "unit": "kg/m3"}, {"measurement": "mass density", "setting": "303.15 K, 100 kPa, x2 = 0.7906", "value": "680.1 ± 0.8", "unit": "kg/m3"}, {"measurement": "viscosity", "setting": "303.39 K, 100 kPa, x2 = 0.5427", "value": "0.414 ± 0.014", "unit": "mPa·s"}, {"measurement": "viscosity", "setting": "303.39 K, 5000 kPa, x2 = 0.5427", "value": "0.435 ± 0.014", "unit": "mPa·s"}, {"measurement": "viscosity", "setting": "303.39 K, 10000 kPa, x2 = 0.5427", "value": "0.459 ± 0.015", "unit": "mPa·s"}, {"measurement": "viscosity", "setting": "303.85 K, 100 kPa, x2 = 0.2808", "value": "0.441 ± 0.014", "unit": "mPa·s"}, {"measurement": "viscosity", "setting": "303.85 K, 5000 kPa, x2 = 0.2808", "value": "0.465 ± 0.015", "unit": "mPa·s"}, {"measurement": "viscosity", "setting": "303.85 K, 10000 kPa, x2 = 0.2808", "value": "0.492 ± 0.016", "unit": "mPa·s"}, {"measurement": "viscosity", "setting": "305.74 K, 100 kPa, x2 = 0.7906", "value": "0.379 ± 0.012", "unit": "mPa·s"}, {"measurement": "viscosity", "setting": "305.74 K, 5000 kPa, x2 = 0.7906", "value": "0.402 ± 0.013", "unit": "mPa·s"}, {"measurement": "viscosity", "setting": "305.74 K, 10000 kPa, x2 = 0.7906", "value": "0.425 ± 0.014", "unit": "mPa·s"}, {"measurement": "mass density", "setting": "306.18 K, 2942 kPa, x2 = 0.2808", "value": "690.3 ± 0.8", "unit": "kg/m3"}, {"measurement": "mass density", "setting": "306.18 K, 7021 kPa, x2 = 0.2808", "value": "693.8 ± 0.8", "unit": "kg/m3"}, {"measurement": "mass density", "setting": "306.18 K, 8826 kPa, x2 = 0.2808", "value": "695.3 ± 0.8", "unit": "kg/m3"}, {"measurement": "mass density", "setting": "307.62 K, 2608 kPa, x2 = 0.7906", "value": "678.6 ± 0.8", "unit": "kg/m3"}, {"measurement": "mass density", "setting": "307.62 K, 7178 kPa, x2 = 0.7906", "value": "683 ± 0.8", "unit": "kg/m3"}, {"measurement": "mass density", "setting": "307.62 K, 9140 kPa, x2 = 0.7906", "value": "684.6 ± 0.8", "unit": "kg/m3"}, {"measurement": "mass density", "setting": "308.15 K, 100 kPa, x2 = 0.2808", "value": "686.1 ± 0.8", "unit": "kg/m3"}, {"measurement": "mass density", "setting": "308.15 K, 100 kPa, x2 = 0.5427", "value": "680.9 ± 0.8", "unit": "kg/m3"}, {"measurement": "mass density", "setting": "308.15 K, 100 kPa, x2 = 0.7906", "value": "675.9 ± 0.8", "unit": "kg/m3"}, {"measurement": "viscosity", "setting": "312.71 K, 100 kPa, x2 = 0.2808", "value": "0.4 ± 0.013", "unit": "mPa·s"}, {"measurement": "viscosity", "setting": "312.71 K, 5000 kPa, x2 = 0.2808", "value": "0.424 ± 0.014", "unit": "mPa·s"}, {"measurement": "viscosity", "setting": "312.71 K, 10000 kPa, x2 = 0.2808", "value": "0.446 ± 0.015", "unit": "mPa·s"}, {"measurement": "viscosity", "setting": "312.74 K, 100 kPa, x2 = 0.5427", "value": "0.374 ± 0.012", "unit": "mPa·s"}, {"measurement": "viscosity", "setting": "312.74 K, 5000 kPa, x2 = 0.5427", "value": "0.396 ± 0.013", "unit": "mPa·s"}, {"measurement": "viscosity", "setting": "312.74 K, 10000 kPa, x2 = 0.5427", "value": "0.419 ± 0.014", "unit": "mPa·s"}, {"measurement": "viscosity", "setting": "312.75 K, 100 kPa, x2 = 0.7906", "value": "0.352 ± 0.012", "unit": "mPa·s"}, {"measurement": "viscosity", "setting": "312.75 K, 5000 kPa, x2 = 0.7906", "value": "0.373 ± 0.012", "unit": "mPa·s"}, {"measurement": "viscosity", "setting": "312.75 K, 10000 kPa, x2 = 0.7906", "value": "0.395 ± 0.013", "unit": "mPa·s"}, {"measurement": "mass density", "setting": "313.15 K, 100 kPa, x2 = 0.2808", "value": "681.6 ± 0.8", "unit": "kg/m3"}, {"measurement": "mass density", "setting": "313.15 K, 100 kPa, x2 = 0.5427", "value": "676.6 ± 0.8", "unit": "kg/m3"}, {"measurement": "mass density", "setting": "313.15 K, 100 kPa, x2 = 0.7906", "value": "671.6 ± 0.8", "unit": "kg/m3"}, {"measurement": "mass density", "setting": "318.15 K, 100 kPa, x2 = 0.2808", "value": "677.4 ± 0.8", "unit": "kg/m3"}, {"measurement": "mass density", "setting": "318.15 K, 100 kPa, x2 = 0.5427", "value": "672.7 ± 0.8", "unit": "kg/m3"}, {"measurement": "mass density", "setting": "318.15 K, 100 kPa, x2 = 0.7906", "value": "667.3 ± 0.8", "unit": "kg/m3"}, {"measurement": "viscosity", "setting": "321.21 K, 100 kPa, x2 = 0.5427", "value": "0.338 ± 0.011", "unit": "mPa·s"}, {"measurement": "viscosity", "setting": "321.21 K, 5000 kPa, x2 = 0.5427", "value": "0.359 ± 0.012", "unit": "mPa·s"}, {"measurement": "viscosity", "setting": "321.21 K, 10000 kPa, x2 = 0.5427", "value": "0.38 ± 0.012", "unit": "mPa·s"}, {"measurement": "viscosity", "setting": "321.71 K, 100 kPa, x2 = 0.2808", "value": "0.362 ± 0.012", "unit": "mPa·s"}, {"measurement": "viscosity", "setting": "321.71 K, 5000 kPa, x2 = 0.2808", "value": "0.384 ± 0.013", "unit": "mPa·s"}, {"measurement": "viscosity", "setting": "321.71 K, 10000 kPa, x2 = 0.2808", "value": "0.405 ± 0.013", "unit": "mPa·s"}, {"measurement": "mass density", "setting": "323.15 K, 100 kPa, x2 = 0.2808", "value": "673.2 ± 0.8", "unit": "kg/m3"}, {"measurement": "mass density", "setting": "323.15 K, 100 kPa, x2 = 0.5427", "value": "668.5 ± 0.8", "unit": "kg/m3"}, {"measurement": "mass density", "setting": "323.15 K, 100 kPa, x2 = 0.7906", "value": "663 ± 0.8", "unit": "kg/m3"}, {"measurement": "viscosity", "setting": "323.82 K, 100 kPa, x2 = 0.7906", "value": "0.314 ± 0.01", "unit": "mPa·s"}, {"measurement": "viscosity", "setting": "323.82 K, 5000 kPa, x2 = 0.7906", "value": "0.334 ± 0.011", "unit": "mPa·s"}]}]}
